Where a name gives a salt, the structure may show the parent alone.
Experiments:
hBM-MSCs [1] = test: Secretome analysis of primed hBM-MSCs by ELISA; type: cell-based, human; conditions: vs control/untreated
Experimental: hBM-MSCs were cultured in xeno free media along with a replacement of 10% and 20% of CSSC-derived conditioned media (CSSC-CM) to reach a confluence of 80-90%. The media was then subsequently shifted to EV collect for 24-72 hours and primed conditioned media was collected (as described in example 1.1, and 1.2), and exosome isolation was performed by iodixanol density gradient method (as described in example 4.4) and enriched exosomes were obtained. Homogenous fraction F9 was considered for further functional analysis. The secretome analysis was performed using ELISA, detecting the levels of HGF, VEGF, sFLT1, IL-6, NGF.
hBM-MSCs were primed with various priming agents (small molecules) and the secretome was collected (see example 3.2-3.6). The secretome analysis was performed using ELISA, and the levels of HGF, VEGF, NGF, IL-6, sFLT1, SDF1 were detected. FIGS. 6A-6F depict bar graphs of the quantification of the secreted protein levels of HGF, VEGF, NGF, IL-6, sFLT1, and SDF-1 from hBM-MSCs primed with curcumin, 4-OI, DMF, or the combination of curcumin conditioned media and DMF.

hBM-MSCs [2] = test: Yield of exosomes from primed hBM-MSCs; type: cell-based, human; conditions: priming of hBM-MSCs, compared to untreated (naïve) and other priming agents
Experimental: hBM-MSC was cultured in xeno-free media recommended by the manufacturer, hBM-MSC cells were grown to reach confluency of (80-90) % and treated with a Nrf2 activator (DMF-100 μM) for 24 hours before shifting and maintaining the cells in EV collect media for 24-72 hours (see example 3.3). After 72 hours, condition media was collected, and exosome isolation was performed using iodixanol density gradient protocol (as described in example 4.4).

MSCs [3] = test: PGE2 levels in MSCs pre-treated with ATRA; type: cell-based; conditions: 1, 10, 100 μmol/L, dose-dependent
Experimental: (§1) ATRA is found to increase the viability of MSCs. This was ascertained as the MSCs were treated with various concentrations of ATRA (0.1 μM to 500 μM) for 24 and 48 hours and their viability were examined by MTT assay. […] ATRA elevated the PGE2 levels. […] ATRA increased the expression of genes involved in MSC survival, migration and angiogenesis.

MSCs [4] = test: Quantitative real time-PCR of MSCs treated with ATRA; type: cell-based; conditions: 1, 10, 100 μmol/L
Experimental: as §1

MSCs [5] = test: MSC viability by MTT assay after ATRA treatment; type: cell-based; conditions: 0.1 μM to 500 μM for 24 and 48 hours; all treated MSCs except 0.1 μmol/L
Experimental: as §1

[6] = tested on: NASH-induced liver spheroids; test: Microarray gene expression profiling of NASH-induced human liver spheroids; type: cell-based
Excerpt: As described herein above and shown in FIGS. 15A-15F, the effect on the liver spheroids of treatment with disease-state induction agents such the FFA mixture or TGFβ1 and/or with therapeutic agents such as the exosomes can be assayed one marker (or a new markers) at a time with techniques such as immune-staining and ELISA. However, a much larger count (dozens, hundreds, thousands) of markers may be assay simultaneously using high-throughput techniques, such as microarray or next generation sequencing (NGS). FIG. 16A depicts a heatmap of changes in gene expression of liver spheroids based on microarray hybridization data. Microarray hybridization data was acquired as follows: After growth of liver spheroid samples and treatment with NASH-induction agents and/or with therapeutic agents as describe above, the liver spheroids were isolated, lysed, and mRNA was isolated, then converted to sequences of complementary DNA (cDNA). The cDNA samples were then applied to an Agilent® microarray and read with a microarray reader. The microarray analysis was performed for a predetermined transcriptome set of 22,473 genes (included in the microarray) using standard methods to obtain normalized expression values. […]
The gene expression levels of the liver spheroids in each of the different liver spheroid states were also represented and stored, respectively, as feature vectors (“spheroid state feature vectors”), with each element of a given spheroid state feature vector being a level of expression of one of the genes assayed in the microarray. The similarity (or lack of similarity) of the gene expression profile between different states was determined based on a measure of distance between pairs of feature vectors in an n-dimensional space, n being the number of genes represented in each of the feature vectors. […]

[7] = tested on: NASH-induced liver spheroids; test: Treatment of NASH-induced human liver spheroids, marker staining and albumin ELISA; type: cell-based; conditions: treatment at D17-D19 after NASH induction, ELISA at 24, 48, 72 hours; HGF 40 ng/ml
Experimental: The protocol for generating human liver spheroids and inducing a NASH phenotype in the human liver spheroids for the present study was as follows: A mix of primary hepatocytes and liver stellate cells from human donors were co-cultured at a 70:30 ratio (70 hepatocytes to 30 liver stellate cells). The cell mixture was seeded on ultra-low attachment plates and cultured to form viable liver spheroids. […] The NASH induction protocol was as follows: On day 7 post seeding, the spheroids were treated with 600 μM free fatty acid (FFA) mixture consisting of Oleic acid and Palmitic acid at a weight ratio of 2:1 for 6 days with media change every other day. After 6 days of FFA treatment (13 days post seeding), 20 ng/mL of TGF β1 was added to the FFA-containing media for a further two days of combined FFA and TGFβ1 treatment. At day 15 post seeding (after 8 days of FFA treatment and 2 days of combined FFA and TGFβ1 treatment), the media was changed to TGF β1-only treatment, with 20 ng/mL TGF β1 and without the FFA mix. […], at day 19 post seeding, the spheroids and the conditioned media were harvested for characterization. […]
Secreted albumin levels is another marker of liver health. […] The secreted albumin in the culture medium was quantified based on ELISA measurements. […]

Molecule	secreted HGF level (hBM-MSCs [1])	secreted IL-6 level (hBM-MSCs [1])	secreted NGF level (hBM-MSCs [1])	yield of exosomes (hBM-MSCs [2])	other results
C=C(CC(=O)OCCCCCCCC)C(=O)O [4-OI, 4 Octyl itaconate]	significant increase	attenuated	enhanced	higher yield	
CC1=C(/C=C/C(C)=C/C=C/C(C)=C/C(=O)O)C(C)(C)CCC1 [ATRA, all-trans retinoic acid]					PGE2 levels (MSCs [3]): significantly increased; mRNA levels of COX-2, HIF-1, CXCR4, CCR2, VEGF, Ang-2 and Ang-4 (MSCs [4]): elevated in a dose dependent manner; MSC viability (MSCs [5]): significantly higher
COC(=O)/C=C/C(=O)OC [DMF, Dimethyl fumarate]	significant increase	attenuated	increase	higher yield	secreted SDF-1 level (hBM-MSCs [1]): increase; secreted sFLT1 level (hBM-MSCs [1]): increase
COc1cc(/C=C/C(=O)CC(=O)/C=C/c2ccc(O)c(OC)c2)ccc1O [curcumin, Curcumin]		attenuated			
HGF: 40 ng/ml hepatic growth factor used as comparison treatment of NASH-induced liver spheroids					recovery based on gene expression patterns, Jaccard Similarity Index coordinates ([6]; FIGS. 18A-18C gene sets): substantially more similar to the diseased state; gene expression profile of 287 liver specific genes, cluster analysis ([6]; treatment after NASH induction): most closely resembled the gene expression profile of the Diseased liver spheroid state; gene expression profile, principal component analysis ([6]; treatment at D17-D19 after NASH induction, HGF 40 ng/ml): substantially unchanged; albumin secretion [7]: did not result in increased
